How the values were obtained:
[1] = test system: Colletotrichum gloeosporioides; details: in vivo; cited from earlier work
[2] = test system: Helminthosporium solani; assay: Viability of Helminthosporium solani propagules on treated potato tubers in storage
Description: (§1) The efficacy of combinations of essential oils and potassium salt of phosphonic acid (potassium sesquiphosphite) to reduce the viability of fungal infection and diseases in potatoes during storage was measured in the following manner: the tubers were collected. 500 tubers were selected for their average infection of Rhizoctonia (variety Nicola Bio); Helminthosporium solani (variety Vivaldi traditional). The tubers were incubated at 15° C. for 45 days to allow the development of symptoms. 50 tubers (6 to 8 kg) were treated with a composition of essential oil (at 570 ppm or 1140 ppm), a composition of potassium salt of phosphonic acid at 0.6% or 1.2% by weight, as well as mixtures thereof. The phosphonic acid solution was sprayed at ambient temperature at an application rate of 75 mL per 5 kg. 50 mL of clove oil solution were sprayed out. The tubers were incubated at 8° C. for 45 days after treatment. The viability of colonies of Rhizoctonia and Helminthosporium was monitored.

[3] = test system: Rhizoctonia; assay: Viability of Rhizoctonia propagules on treated potato tubers in storage
Description: as §1

[4] = test system: Penicilliums; details: ambient temperature, treatment doses close to 10,000 ppm, oranges; cited from earlier work
[5] = test system: Colletotrichum gloeosporioides; assay: Treatment of olive trees affected by Colletotrichum gloeosporioides; assay type: in vivo; details: for Percentage of olive leaves with symptoms of infection: dose 0.5% of potassium sesquiphosphite composition alone
From the text: A composition at about 20% of clove oil and a composition of the potassium salt of phosphonic acid were separately applied at doses of 0.3% and 0.5% respectively, as well as in combination with the same doses.

[6] = test system: Geotrichum sp; assay: Efficacy against Geotrichum sp on inoculated citrus (mandarin ortanique); assay type: in vivo; details: K-Phos 500 ml/100 L (375 g/100 L potassium sesquiphosphite), spraying at ambient temperature
Description: The fruits were inoculated with a suspension of spores of Geotrichum sp after perforation of the skin. […] When clove oil alone was applied, the fruits were immersed for 2 min in a bath at a temperature of between 49° C. and 51° C. The fruits were stored. At various time intervals, the fruits were individually inspected for signs of phytotoxicity and efficacy by determining the percentage of the surface of the skin affected and the stage of development of the disease in the controls. The variables studied were the incidence (percentage of fruit affected) and severity of the attack (percentage of the fruit surface affected by the disease).

[7] = 570 ppm oil/terpene alone, potato tubers sprayed, 45 days at 8° C. after treatment
[8] = 0.6% potassium sesquiphosphite alone, potato tubers sprayed at ambient temperature, 45 days at 8° C. after treatment
[9] = 1.2% potassium sesquiphosphite alone, potato tubers sprayed at ambient temperature, 45 days at 8° C. after treatment

Question: With `O=C1C2CC=CCC2C(=O)N1SC(Cl)(Cl)Cl` (stereo not drawn) [Captan] as the molecule, how does the “activity in control of the disease in olive orchards” value [1] read?
Answer: low level of activity

Question: For `Cc1ccc(C(C)C)cc1O` [carvacrol], which “Viability of Propagules (%) Helminthosporium solani” value [2, 7] is on record?
Answer: 50%

Question: And the “Viability of Propagules (%) Rhizoctonia” value [3, 7]?
Answer: 52%

Question: For `CC(C)=CCC/C(C)=C/CO` [geraniol], which “Viability of Propagules (%) Helminthosporium solani” value [2, 7] is on record?
Answer: 38%

Question: And the “Viability of Propagules (%) Rhizoctonia” value [3, 7]?
Answer: 83%

Question: With `O=[PH](O)O` [phosphonic acid, Phosphonic acid] as the molecule, how does the “control of the growth of Helminthosporium solani” value ([2]; applied alone) read?
Answer: altogether insufficient degree

Question: And the “activity on Penicilliums” value [4]?
Answer: very weak

Question: What about the “control of the growth of Rhizoctonia” value ([3]; applied alone) of the same molecule?
Answer: altogether insufficient degree

Question: What about the “activity compared to the control (olive leaf infection)” value ([5]; applied alone) of the same molecule?
Answer: low level of activity

Question: Which results are given for `Cc1ccc(C(C)C)c(O)c1` [thymol]?
Answer: Viability of Propagules (%) Helminthosporium solani ([2]; Helminthosporium solani, in vivo, 45 days, 570 ppm): 45%; Viability of Propagules (%) Rhizoctonia ([3]; Rhizoctonia, in vivo, 45 days, 570 ppm): 75%

Question: What does the source list for potassium sesquiphosphite?
Answer: Percentage of fruit affected after 14 days, value in parentheses (activity compared to the control) [6]: no activity; Viability of Propagules (%) Helminthosporium solani [2, 8]: 30%; Viability of Propagules (%) Helminthosporium solani [2, 9]: 6%; Viability of Propagules (%) Rhizoctonia [3, 8]: 60%; Viability of Propagules (%) Rhizoctonia [3, 9]: 22%; Percentage of olive leaves with symptoms of infection ([5]; t1 + 90 days): 50%; Percentage of olive leaves with symptoms of infection ([5]; t1): 41%
